From patent publication US4426389A, “Derivatives of clavulanic acid, a process for their preparation and their use” (Beecham Group Limited, priority 1979, dated 1984)
Values after ≈ are worked out from the molar mass of the structure shown.

Experiments:
Assay type in all cases: cell-based
Staph. aureus Russell [1] = assay: Antibacterial activity, MIC, Staph. aureus Russell; conditions: Staphylococcus aureus
Source text: (§1) Antibacterial activity of 9-N-(2'-cyanoethyl)aminodeoxyclavulanic acid, MIC μg/ml.

Strep. Pneumoniae = assay: Antibacterial activity, MIC, Strep. Pneumoniae; conditions: Streptococcus pneumoniae
Source text: as §1

Strep. Pyogenes = assay: Antibacterial activity, MIC, Strep. Pyogenes; conditions: Streptococcus pyogenes
Source text: as §1

Staph. aureus Russell [2] = assay: MIC by standard microtitre technique (dilution in tryptone soy broth), Staph. aureus Russell; conditions: Staphylococcus aureus, alone
Protocol: (§2) By a standard microtitre technique the MIC values for ampicillin alone, ampicillin and 9-N-(2'-cyanoethyl)aminodeoxyclavulanic acid and 9-N-(2'-cyanoethyl)aminodeoxyclavulanic acid alone were determined.
(§3) MIC μg/ml (dilution in tryptone soy broth)

E. coli JT39 = assay: MIC by standard microtitre technique (dilution in tryptone soy broth), E. coli JT39; conditions: Escherichia coli, alone
Protocol: as §2, §3

Staph. aureus Oxford = assay: Antibacterial activity, MIC, Staph. aureus Oxford; conditions: Staphylococcus aureus
Source text: as §1

Kleb. aerogenes E70 = assay: MIC by standard microtitre technique (dilution in tryptone soy broth), Kleb. aerogenes E70; conditions: Klebsiella aerogenes, alone

| SMILES | MIC (Staph. aureus Russell [1]) [µg/mL] | MIC (Strep. Pneumoniae) [µg/mL] | MIC (Strep. Pyogenes) [µg/mL] | MIC (Staph. aureus Russell [2]) [µg/mL] | MIC (E. coli JT39) [µg/mL] | MIC (Staph. aureus Oxford) [µg/mL] | MIC (Kleb. aerogenes E70) [µg/mL] |
| --- | --- | --- | --- | --- | --- | --- | --- |
| N#CCCNC/C=C1\O[C@@H]2CC(=O)N2[C@H]1C(=O)O [9-N-(2'-Cyanoethyl)aminodeoxyclavulanic acid] | 10 to 20 (≈ 39.8 to 79.6 µM) | 5 (≈ 19.9 µM) | 10 (≈ 39.8 µM) | 16 (≈ 63.7 µM) | 31 (≈ 123 µM) | 10 to 20 (≈ 39.8 to 79.6 µM) | 250 (≈ 995 µM) |
| CC1(C)S[C@@H]2[C@H](NC(=O)[C@H](N)c3ccccc3)C(=O)N2[C@H]1C(=O)O [Ampicillin, ampicillin, reference compound] | – | – | – | 500 to 1000 (≈ 1430 to 2860 µM) | – | – | 500 to 1000 (≈ 1430 to 2860 µM) |
